Reference: the CheMixHub viscosity set

Assay: xn = mol fraction of the nth substance listed

C1CCCCC1 + CCCCCCC
Conditions	viscosity [mPa·s]
298.15 K, 101 kPa, x1 = 0.3947	0.588
298.15 K, 101 kPa, x1 = 0.4171	0.598
298.15 K, 101 kPa, x1 = 0.4283	0.604
298.15 K, 101 kPa, x1 = 0.4413	0.612
298.15 K, 101 kPa, x1 = 0.4536	0.618
298.15 K, 101 kPa, x1 = 0.4623	0.622
298.15 K, 101 kPa, x1 = 0.469	0.626
298.15 K, 101 kPa, x1 = 0.4767	0.629
298.15 K, 101 kPa, x1 = 0.4813	0.631
298.15 K, 101 kPa, x1 = 0.4869	0.634
298.15 K, 101 kPa, x1 = 0.4921	0.636
298.15 K, 101 kPa, x1 = 0.4949	0.638
298.15 K, 101 kPa, x1 = 0.499	0.64
298.15 K, 101 kPa, x1 = 0.5069	0.644
298.15 K, 101 kPa, x1 = 0.5154	0.648
298.15 K, 101.33 kPa, x1 = 0.1013	0.406
298.15 K, 101.33 kPa, x1 = 0.1036	0.4183
298.15 K, 101.33 kPa, x1 = 0.2023	0.4381
298.15 K, 101.33 kPa, x1 = 0.2027	0.425
298.15 K, 101.33 kPa, x1 = 0.2962	0.46
298.15 K, 101.33 kPa, x1 = 0.304	0.448
298.15 K, 101.33 kPa, x1 = 0.3888	0.484
298.15 K, 101.33 kPa, x1 = 0.4037	0.475
298.15 K, 101.33 kPa, x1 = 0.4752	0.512
298.15 K, 101.33 kPa, x1 = 0.4998	0.505
298.15 K, 101.33 kPa, x1 = 0.5556	0.5415
298.15 K, 101.33 kPa, x1 = 0.6018	0.546
298.15 K, 101.33 kPa, x1 = 0.6389	0.5789
298.15 K, 101.33 kPa, x1 = 0.6985	0.594
298.15 K, 101.33 kPa, x1 = 0.7049	0.6136
298.15 K, 101.33 kPa, x1 = 0.7751	0.6582
298.15 K, 101.33 kPa, x1 = 0.8024	0.661
298.15 K, 101.33 kPa, x1 = 0.8468	0.7195
298.15 K, 101.33 kPa, x1 = 0.9002	0.751
298.15 K, 101.33 kPa, x1 = 0.9096	0.7778
298.15 K, 101.33 kPa, x1 = 0.9735	0.8588
298.15 K, 101.33 kPa, x2 = 0.1008	0.776
298.15 K, 101.33 kPa, x2 = 0.2001	0.68
298.15 K, 101.33 kPa, x2 = 0.2493	0.641
298.15 K, 101.33 kPa, x2 = 0.3511	0.578
298.15 K, 101.33 kPa, x2 = 0.4012	0.556
298.15 K, 101.33 kPa, x2 = 0.4993	0.52
298.15 K, 101.33 kPa, x2 = 0.5726	0.483
298.15 K, 101.33 kPa, x2 = 0.6007	0.479
298.15 K, 101.33 kPa, x2 = 0.7471	0.447
298.15 K, 101.33 kPa, x2 = 0.8984	0.409
303.15 K, 101 kPa, x1 = 0.0998	0.3894
303.15 K, 101 kPa, x1 = 0.2012	0.4064
303.15 K, 101 kPa, x1 = 0.298	0.4275
303.15 K, 101 kPa, x1 = 0.3986	0.454
303.15 K, 101 kPa, x1 = 0.5009	0.4857
303.15 K, 101 kPa, x1 = 0.5994	0.524
303.15 K, 101 kPa, x1 = 0.7025	0.5716
303.15 K, 101 kPa, x1 = 0.7975	0.6321
303.15 K, 101 kPa, x1 = 0.9009	0.7191
303.15 K, 101.33 kPa, x1 = 0.1013	0.386
303.15 K, 101.33 kPa, x1 = 0.2027	0.402
303.15 K, 101.33 kPa, x1 = 0.304	0.422
303.15 K, 101.33 kPa, x1 = 0.4037	0.447
303.15 K, 101.33 kPa, x1 = 0.4998	0.477
303.15 K, 101.33 kPa, x1 = 0.6018	0.512
303.15 K, 101.33 kPa, x1 = 0.6985	0.556
303.15 K, 101.33 kPa, x1 = 0.8024	0.619
303.15 K, 101.33 kPa, x1 = 0.9002	0.694
308.15 K, 101.33 kPa, x1 = 0.1013	0.365
308.15 K, 101.33 kPa, x1 = 0.2027	0.379
308.15 K, 101.33 kPa, x1 = 0.304	0.399
308.15 K, 101.33 kPa, x1 = 0.4037	0.422
308.15 K, 101.33 kPa, x1 = 0.4998	0.448
308.15 K, 101.33 kPa, x1 = 0.6018	0.481
308.15 K, 101.33 kPa, x1 = 0.6985	0.52
308.15 K, 101.33 kPa, x1 = 0.8024	0.577
308.15 K, 101.33 kPa, x1 = 0.9002	0.643

CCC(C)=O + CCCCCCC
298 K, 101.33 kPa
Conditions	viscosity [mPa·s]
x2 = 0.1271	0.3686
x2 = 0.2092	0.3655
x2 = 0.3055	0.3637
x2 = 0.4593	0.3646
x2 = 0.5955	0.3649
x2 = 0.7044	0.3677
x2 = 0.8014	0.3721
x2 = 0.9011	0.3789

COC(C)=O + CCCCCCCC
298.15 K, 101.3 kPa
Conditions	viscosity [mPa·s]
x1 = 0.1268	0.4797
x1 = 0.2408	0.4518
x1 = 0.337	0.4361
x1 = 0.431	0.4213
x1 = 0.5066	0.4108
x1 = 0.5788	0.4021
x1 = 0.644	0.3953
x1 = 0.757	0.3849
x1 = 0.8528	0.3786
